Experimental findings from ChEMBL document CHEMBL1152302, “Dihydropyrrole[2,3-d]pyridine derivatives as novel corticotropin-releasing factor-1 antagonists: mapping of the receptor binding pocket by in silico docking studies” (J Med Chem, 2008) are described below.

A word on the IC50: it is the midpoint of a concentration-inhibition curve.

This experiment deals with T1, Corticotropin-releasing factor receptor 1 (Homo sapiens, UniProt P34998).
T1 sequence (P34998 whole entry): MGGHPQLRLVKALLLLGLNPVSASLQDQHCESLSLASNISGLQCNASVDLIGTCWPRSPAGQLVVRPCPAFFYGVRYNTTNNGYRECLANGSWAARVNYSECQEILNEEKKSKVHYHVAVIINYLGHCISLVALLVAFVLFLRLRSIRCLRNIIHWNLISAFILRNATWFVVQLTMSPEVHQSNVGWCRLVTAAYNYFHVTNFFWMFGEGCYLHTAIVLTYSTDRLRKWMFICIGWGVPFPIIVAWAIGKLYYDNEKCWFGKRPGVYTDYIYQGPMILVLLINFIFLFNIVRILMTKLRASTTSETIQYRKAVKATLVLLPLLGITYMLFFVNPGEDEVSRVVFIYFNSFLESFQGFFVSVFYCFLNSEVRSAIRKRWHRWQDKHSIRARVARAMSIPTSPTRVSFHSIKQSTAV
The experiment is described as follows: Displacement of [125I]sauvagine from human recombinant CRF1 receptor expressed in CHO cells by SPA. The format is cell-based. On the technique in general: Loss of bound radioactivity is the signal in a displacement assay; it reports binding, not function.

As to `Cc1cc(-n2ccc(-c3nccs3)n2)c2nc(C)n(-c3ccc(C(F)(F)F)cc3C(F)(F)F)c2n1`, the IC50 is greater than 10000 nM.
Then `Cc1cc(-n2ccc(-c3nccs3)n2)c2nc(C(F)(F)F)n(-c3ccc(C(F)(F)F)cc3C(F)(F)F)c2n1`, with greater than 10000 nM; and `Cc1cc(-n2ccc(-c3nccs3)n2)c2c(n1)N(c1ccc(S(C)(=O)=O)cc1Cl)CC2`, with 2340 nM.
For the molecule `Cc1cc(-n2ccc(-c3nccs3)n2)c2c(n1)N(c1ccc(C(F)(F)F)cc1C(F)(F)F)CC2`, the IC50 was 27.5 nM.
Turning to `COc1ccc(N2CCc3c(-n4ccc(-c5nccs5)n4)cc(C)nc32)c(C)n1`, the IC50 is 60.3 nM.
Then `Cc1cc(-n2ccc(-c3nccs3)n2)c2c(n1)N(c1ccc(F)cc1[N+](=O)[O-])CC2`, with greater than 10000 nM; and `Cc1cc(-n2ccc(-c3nccs3)n2)c2[nH]c(=O)n(-c3ccc(C(F)(F)F)cc3C(F)(F)F)c2n1`, with 8320 nM.
Then `Cc1cc(-n2ccc(-c3nccs3)n2)c2c(n1)N(c1ccc(C#N)cc1-c1cccs1)CC2`, with 851 nM; and `Cc1cc(-n2ccc(-c3nccs3)n2)c2c(n1)N(c1cnc(N(C)C)cc1C)CC2`, with 257 nM; and `COc1ccc2c(c1)CCN2c1cc(-n2ccc(-c3nccs3)n2)cc(C)n1`, with greater than 10000 nM.
Then `Cc1cc(-n2ccc(-n3cccn3)n2)c2c(n1)N(c1ccc(C#N)cc1C(F)(F)F)CC2`, with 145 nM.
For `Cc1cc(-n2ccc(-c3nccs3)n2)c2c(n1)N(c1ccc(C#N)cc1F)CC2`, the IC50 was 2040 nM.
Turning to `Cc1cc(-n2ccc(-c3nccs3)n2)c2cnn(-c3ccc(C#N)cc3C)c2n1`, the IC50 is 2750 nM.
On to `Cc1cc(-n2ccc(-c3ccccn3)n2)c2c(n1)N(c1ccc(C#N)cc1C(F)(F)F)CC2`, for which the IC50 is 93.3 nM.
Then `Cc1cc(-n2ccc(-c3ccccn3)n2)c2c(n1)N(c1ccc(C#N)cc1C)CC2`, with 224 nM; and `Cc1cc(-n2ccc(-c3nccs3)n2)c2c(n1)N(c1ccc(O)cc1C)CC2`, with 3470 nM; and `COc1ccc(-n2ccc3c(-n4ccc(-c5nccs5)n4)cc(C)nc32)c(C)c1`, with 427 nM.
The result for `COc1ccc(N2CCc3c(-n4ccc(-c5nccs5)n4)cc(C)nc32)c(C(F)F)c1` reads 34.7 nM; that for `Cc1cc(-n2ccc(-c3nccs3)n2)c2c(n1)N(c1ccc(C(F)(F)F)cc1C(F)(F)F)S(=O)(=O)C2`, greater than 10000 nM; that for `COc1ccc(N2CCc3c(-n4ccc(-c5nccs5)n4)cc(C)nc32)c(C)c1`, 53.7 nM.
The result for `Cc1cc(-n2ccc(-c3ccccn3)n2)c2c(n1)N(c1ccc(C#N)cc1Cl)CC2` reads 363 nM.
In the case of `Cc1cc(-n2ccc(-c3nccs3)n2)c2c(n1)N(c1ccc(S(C)(=O)=O)cc1S(C)(=O)=O)CC2`, the IC50 is 3890 nM.
Then `Cc1cc(-n2ccc(-n3cccn3)n2)c2c(n1)N(c1ccc(C#N)cc1Cl)CC2`, with 115 nM.
Then `COc1ccc(N2CCc3c(-n4ccc(-c5nccs5)n4)cc(C)nc32)cc1`, with 8710 nM; and `COc1ccc(N2CCc3c(-n4ccc(-c5nccs5)n4)cc(C)nc32)c(OC)n1`, with 214 nM.
The result for `Cc1cc(-n2ccc(-c3nccs3)n2)c2c(n1)N(c1ccc(C#N)cc1C#N)CC2` reads 7410 nM; that for `Cc1cc(-n2ccc(-c3nccs3)n2)c2c(n1)N(c1ccc(F)cc1C)CC2`, 162 nM; that for `COc1ccc(N2CCc3c(-n4ccc(-c5nccs5)n4)cc(C)nc32)c([N+](=O)[O-])c1`, greater than 10000 nM.
In the case of `COc1ccc(N2CCc3c(-n4ccc(-c5nccs5)n4)cc(C)nc32)c(Cl)c1`, the IC50 was 56.2 nM.
Take `CCc1cc(C#N)ccc1N1CCc2c(-n3ccc(-c4nccs4)n3)cc(C)nc21`: the IC50 was 126 nM.
`Cc1cc(-n2ccc(-c3nccs3)n2)c2c(n1)N(c1ccc(C#N)cc1Cl)CC2`: the IC50 is 229 nM.
Turning to `Cc1cc(-n2ccc(-c3nccs3)n2)c2c(n1)N(c1ccc([N+](=O)[O-])cc1C(F)(F)F)CC2`, the IC50 was 58.9 nM.
Regarding `Cc1cc(-n2ccc(-n3cccn3)n2)c2c(n1)N(c1ccc(C#N)cc1C)CC2`, the IC50 was 316 nM.
Turning to `Cc1cc(-n2ccc(-c3nccs3)n2)c2c(n1)N(c1ccc(Cl)cc1[N+](=O)[O-])CC2`, the IC50 is greater than 10000 nM.
The result for `COc1ccc(N2CCc3c(-n4ccc(-c5nccs5)n4)cc(C)nc32)c(OC)c1` reads 174 nM.
